Assay results published in patent publication US9556235B2, “F11 receptor (F11R) antagonists as therapeutic agents” (The Research Foundation for The State University of New York, priority 2003, dated 2017).
“Also recorded” adds a separate entry of the source.

Legend:
human platelets [1] = experiment: Potentiation by M.Ab.F11 of ADP-induced platelet aggregation (sub-threshold M.Ab.F11 plus ADP); assay type: cell-based; settings: for inhibition of M.Ab.F11 plus ADP-induced platelet aggregation: M.Ab.F11 0.3 μg/ml, ADP 0.5 μM
Protocol: (§1) Whole blood was collected into the anticoagulant ACD (pH 4.6), as detailed (Kornecki et al. (1990) J. Biol. Chem., 265:10042-10048, incorporated herein by reference). Platelets were washed and isolated by differential centrifugation, and resuspended in a Tyrode-albumin (0.35%) solution buffered with 11.9 mM sodium bicarbonate (pH 7.35) in the presence of apyrase, heparin, and PGE1 (Id.). […] Platelet aggregation was measured in a Chronolog Whole Blood Lumi-Aggregometer (Chronolog Corp. Havertown, Pa.). […] The lowest concentration of each agonist which caused platelet aggregation was determined in these experiments for each donor on the day of blood collection.
Synthetic peptides according to published sequences of F11R were prepared.

human platelets [2] = experiment: Potentiation by M.Ab.F11 of collagen-induced platelet aggregation; assay type: cell-based
Protocol: as §1
However, the addition of sub-threshold amounts of collagen and M.Ab.F11 triggered a full-blown platelet aggregation.

platelets = experiment: Platelet adhesion to immobilized M.Ab.F11 (BCA protein assay); assay type: cell-based, human; settings: for inhibition in platelet adhesion assay (immobilized M.Ab.F11): FIG. 3 legend, concentration not given; for inhibition of the adhesion of platelets to immobilized M.Ab.F11: M.Ab.F11 150 ng/well
Protocol: An adhesion assay, based on the determination of cell-derived protein using Bicinchoninic Acid (BCA) protein assay (Tuszynski et al. (1990) Anal. Biochem 184:189-191, incorporated herein by reference), was used for platelet adhesion to immobilized M.Ab.F11. Wells of a 96-well plate (Nunc-Immuno™ Plate, MaxiSorp™ Surface, flat bottomed) were incubated overnight at 4° C. with […] of a 1 mg/ml solution of M.Ab.F11. Wells were aspirated, washed, treated with TBS/1% BSA for 1 h at 37° C., and washed with TBS/0.1 mM MnCl2/0.1 mM CaCl2. Isolated platelet suspensions (100 μl) (3×10^8/ml) were added and plates were incubated at 37° C. for 90 min. Total platelet-associated protein was determined by dissolving the attached platelets directly with 100 μl BCA. Platelets were incubated at 37° C. for 2 h, and absorbance (595 nm) determined (Dynatech Laboratories, Chantilly, Va.).
The five peptides with sequences shown in Table 1 were tested also for their effects on the adhesion of platelets to immobilized M.Ab.F11 (applied at a concentration of 150 ng/well). […] Peptide 1 (SEQ ID NO: 1), added at 50 μM caused about 60% inhibition of the adhesion of platelets to immobilized M.Ab.F11, and with 500 μM of peptide 1 (SEQ ID NO: 1), about 70% inhibition was observed. Peptide 4 (SEQ ID NO: 4), at 50 μM, produced very little (10%) inhibition compared to peptide 1 (SEQ ID NO: 1) at similar concentrations. However, 500 μM of peptide 4 (SEQ ID NO: 4) produced approximately 70% inhibition in the adhesion of platelets to M.Ab.F11, similar to that observed with peptide 1 (SEQ ID NO: 1) at the same concentration.

apoE KO mice = experiment: Plaque formation in animal model of atherosclerosis (apoE KO mice); assay type: in vivo; settings: for physical appearance of the animals (secondary consequences of atherosclerosis): 5 month period, Western-type diet, FIG. 7
Protocol: The results of an in-vivo study of the effects of F11R peptide 4D on plaque formation in an animal model of atherosclerosis (apoE knockout/KO mice) are discussed below. The atherosclerosis-prone apoE KO is a strain of mice that has been genetically engineered to develop cardiovascular disease. This genetic abnormality is manifested by the continuous development of atherosclerotic plaques from early age to adulthood, accompanied by deteriorating, sickly appearance.
The study was conducted on atherosclerosis prone apoE deficient (knock-out female mice of 6 weeks of age) of a C57BL/6 background. The mice were obtained from the Jackson Laboratory (Bar Harbor, Me.). Seven animals were injected daily with peptide 4D. In parallel, control groups, consisting of animals injected with water, the vehicle used to deliver peptide 4D, was maintained. All mice were fed a Western-type diet.
At pre-determined intervals of 3, 4 and 5 months of treatment, the aortae were dissected. Following the dissection of the aortae of all mice, morphometric analyses of lesion areas was performed on aortic arch sections stained with Harris hematoxylin-eosin. The total intimal lesion areas were quantified by taking the average of 6 sections spaced 30 μm apart, beginning at the base of the aortic root of each animal. Images were viewed and captured with a microscope (Nikon) equipped with a color video camera (Motic Images Plus 2.0) attached to a computerized imaging system with Image-J.
En face assays (to visualize the entire aorta) were conducted for comparison of the size and number of atherosclerotic plaques in treated and untreated animals using an Oil red O staining procedure, as shown in FIG. 9. […] FIG. 9B illustrates the differences in the number and size of plaques in animals following a 4-month period of injection with peptide 4D, comparing animals “P4, P5” treated with peptide 4D versus controls “H3, H4, H5”.
The proximal aortae of treated an untreated groups were also assessed by hematoxylin-eosin staining of the proximal aorta (root assay) for the size of the lesions/plaques and the necrotic core area within the proximal aorta. FIG. 10A illustrates the plaques and the size of the necrotic core area of animals treated or not treated with peptide 4D for a 3 month period.

human platelets [3] = experiment: M.Ab.F11-induced platelet aggregation; assay type: cell-based; settings: sF11R 1 μg/ml; M.Ab.F11 2.45 μg/ml; FIG. 1A
Protocol: as §1
The soluble polypeptide sF11R was tested in the platelet aggregation assay to determine its effect on the rate and extent of platelet aggregation.
The F11R/JAM-A receptor is constitutively expressed on the surface membrane of human platelets. Studies were carried out testing the effects of Fab fragments prepared from M.Ab.F11, i.e., on the M.Ab.F11-induced platelet aggregation that is triggered by M.Ab.F11 binding to F11R. It was determined that these Fab fragments interfered with the ability of the intact M.Ab.F11 antibody to activate platelets through the constitutively-expressed F11R.
As shown below, platelet aggregation was assayed in the presence of either 0.1 μg/ml (FIG. 4a), or 1.0 μg/ml (FIG. 4b). […]

[4] = collagen 0.5 μg/ml (sub-threshold), peptide concentration not given
[5] = peptide approximately 50-500 μM

KSVTREDTGTYTC [peptide 4]
inhibition of M.Ab.F11 plus ADP-induced platelet aggregation (human platelets [1]; peptide approximately 50 μM): completely block | inhibition of M.Ab.F11 plus ADP-induced platelet aggregation (human platelets [1]; peptide approximately 50 μM, listed as Peptide 4): completely inhibited aggregation | block of potentiation by M.Ab.F11 of collagen-induced platelet aggregation (human platelets [2]; [4]): completely blocked | inhibition in platelet adhesion assay (immobilized M.Ab.F11) (platelets): inhibition | inhibition of the adhesion of platelets to immobilized M.Ab.F11 (platelets; peptide 50 μM): 10% | inhibition of the adhesion of platelets to immobilized M.Ab.F11 (platelets; peptide 500 μM): about 70%

dKSVTdREDTGTYTC-CONH2 [peptide 4D]
size of the atherosclerotic plaques, en face assay (entire aorta, Oil red O) (apoE KO mice; 3, 4 and 5 month period of injection, FIG. 9D): decrease in the size of the atherosclerotic plaques | size of the plaque/lesion areas, proximal aorta (apoE KO mice; 3, 4 and 5 months of injections): significant decreases | size of the necrosis core area (NE) within the lesion (apoE KO mice; 3 month period of injection, FIG. 10C): significant decrease | physical appearance of the animals (secondary consequences of atherosclerosis) (apoE KO mice; apoE KO mice, daily injection): prevented the degeneration of the animal's appearance | physical appearance of the animals (secondary consequences of atherosclerosis) (apoE KO mice; apoE KO mice, daily injection, listed as F11R peptide 4D): diminishes the secondary consequences | loss of hair, itching/scratching and lesions on the skin (apoE KO mice; apoE KO mice, daily injection, FIG. 7C-F): not observed | rate and extent of atherosclerotic plaque formation in major arterial blood vessels (apoE KO mice; apoE KO mice, summary of FIGS. 8-10): significantly decreases | size of atherosclerotic plaques in the aortic arch (apoE KO mice; three, four and five months of injection, hematoxylin-eosin sections, FIG. 8): beneficial effects | size of the lesion area, proximal aorta (root assay) (apoE KO mice; treated for 3 months, *P<0.05, FIG. 10B): significant decrease

WKFDQGDTTRLVEYNNKITASY [peptide 3, F11R amino acids 35-56, control peptide]
inhibition of M.Ab.F11 plus ADP-induced platelet aggregation (human platelets [1]; [5]): no inhibitory effects | inhibition of M.Ab.F11 plus ADP-induced platelet aggregation (human platelets [1]; peptide approximately 50-500 μM, listed as SEQ ID NO: 3): do not inhibit aggregation | block of potentiation by M.Ab.F11 of collagen-induced platelet aggregation (human platelets [2]; [4]): did not inhibit platelet aggregation | inhibition of the adhesion of platelets to immobilized M.Ab.F11 (platelets; peptide 500 μM): did not cause significant inhibition

SYEDRVTFLPTGITFKSVTRED [peptide 2, F11R amino acids 55-76, control peptide]
inhibition of M.Ab.F11 plus ADP-induced platelet aggregation (human platelets [1]; [5]): no inhibitory effects | inhibition of M.Ab.F11 plus ADP-induced platelet aggregation (human platelets [1]; peptide approximately 50-500 μM, listed as SEQ ID NO: 2): do not inhibit aggregation | inhibition of the adhesion of platelets to immobilized M.Ab.F11 (platelets; peptide 500 μM): did not cause significant inhibition

SVTVHSSEPEVRIPENNPVKLSC [peptide 1, N-terminal peptide of F11R, amino acids 1-23]
inhibition of M.Ab.F11 plus ADP-induced platelet aggregation (human platelets [1]; peptide approximately 50 μM): completely inhibited | inhibition of M.Ab.F11 plus ADP-induced platelet aggregation (human platelets [1]; peptide approximately 50 μM, listed as Peptide 1): completely inhibited platelet aggregation | persistence of inhibition of M.Ab.F11 plus ADP-induced platelet aggregation (human platelets [1]; peptide approximately 50 μM, examined after a 12 h period): aggregation did not ensue | block of potentiation by M.Ab.F11 of collagen-induced platelet aggregation (human platelets [2]; [4]): completely blocked | inhibition in platelet adhesion assay (immobilized M.Ab.F11) (platelets): inhibition | inhibition of the adhesion of platelets to immobilized M.Ab.F11 (platelets; peptide 50 μM): about 60% | inhibition of the adhesion of platelets to immobilized M.Ab.F11 (platelets; peptide 500 μM): about 70%

EQDGSPPSEYTWFKD [peptide 5, F11R amino acids 128-142, control peptide]
inhibition of M.Ab.F11 plus ADP-induced platelet aggregation (human platelets [1]; [5]): no inhibitory effects | inhibition of M.Ab.F11 plus ADP-induced platelet aggregation (human platelets [1]; peptide approximately 50-500 μM, listed as SEQ ID NO: 5): do not inhibit aggregation | block of potentiation by M.Ab.F11 of collagen-induced platelet aggregation (human platelets [2]; [4]): did not inhibit platelet aggregation | inhibition of the adhesion of platelets to immobilized M.Ab.F11 (platelets; peptide 500 μM): did not cause significant inhibition

B1: sF11R: secreted recombinant F11R, extracellular portion (amino acids ser-1 to asn-208), His tag, from COS-7 cells (protein)
chain: SVTVHSSEPEVRIPENNPVKLSCAYSGFSSPRVEWKFDQGDTTRLVCYNNKITASYEDRVTFLPTGITFKSVTREDTGTYTCMVSEEGGNSYGEVKVKLIVLVPPSKPTVNIPSSATIGNRAVLTCSEQDGSPPSEYTWFKDGIVMPTNPKSTRAFSNSSYVLNPTTGELVFDPLSASDTGEYSCEARNGYGTPMTSNAVRMEAVERN
modifications: left off: small tags and cut ends
notes: secreted recombinant F11R, extracellular portion (amino acids ser-1 to asn-208), His tag, from COS-7 cells
inhibition of M.Ab.F11-induced platelet aggregation (human platelets [3]): effectively inhibited; also recorded: Inhibition | block of potentiation by M.Ab.F11 of ADP-induced platelet aggregation (human platelets [1]; sF11R 1 μg/ml): completely blocked | block of potentiation by M.Ab.F11 of collagen-induced platelet aggregation (human platelets [2]; sF11R 1 μg/ml): completely blocked
